According to publication PMC3531619 (Angewandte Chemie (International Ed. in English), 2012):
Where no end group is shown, it is not given here. [ ]: non-standard residue; d: D form. Bpa = N[C@@H](Cc1ccc(C(=O)c2ccccc2)cc1)C(=O)O

Tests used:
[1] = system: PP1; assay: Streptavidin pull-down of PP1 with biotinylated peptides from cell lysates; assay type: binding, human; conditions: HEK293 and U2OS cell lysates, streptavidin-coated Sepharose beads, immunoblot
[2] = system: PP2A; assay: Streptavidin pull-down of PP2A with biotinylated peptides from cell lysates; assay type: binding, human; conditions: U2OS cell lysates, streptavidin beads, immunoblot
[3] = system: U2OS cells; assay: Cell viability assay; assay type: cell-based, human; conditions: conditions of the in-cell experiments

Substance | Co-sedimentation of PP1 in pull-down [1] | Co-precipitation of PP2A in pull-down [2] | Cytotoxicity under the experimental conditions [3]
RRKRPKRKRKNARATAAEAAEII [PDP2m] | co-precipitated neither PP1 nor PP2A | co-precipitated neither PP1 nor PP2A | –
RRKRPKRKRKNARATA[Bpa]EAAEII [PDP3m] | – | – | neither PDP3 nor PDP3m showed any cytotoxicity
